Source: patent publication US6242199A, “Assays for growth hormone secretagogue receptors” (Merck & Co., Inc., priority 1998, dated 2001)

Assays:
[1] = target: T1, swine growth hormone secretagogue receptor (Type I, clone 7-3) (Sus scrofa, UniProt Q95254); test: [35S]-Compound A binding to COS-7 cell membranes transfected with swine GHSR clone 7-3
T1 construct: translation of the longest ORF encoded in clone 7-3 encodes a protein of 353 amino acids; expressed in transfected cells; host or cells: COS-7 (transient, Lipofectamine)
Description: Mammalian cells (COS-7) were transfected with GHSR expression plasmids using Lipofectamine (GIBCO-BRL; Hawley-Nelson, 1993, Focus 15:73). Transfections were performed in 60 mm dishes on 80% confluent cells (approximately 4×10^5 cells) with 8 μg of Lipofectamine and 32 μg of GHSR plasmid DNA.
Binding of [^35 S]-Compound A to swine pituitary membranes and crude membranes prepared from COS-7 cells transfected with GHSR expression plasmids was conducted. Crude cell membranes from COS-7 transfectants were prepared on ice, 48 hrs. post-transfection. Each 60 mm dish was washed twice with 3 ml of PBS, once with 1 ml homogenization buffer (50 mM Tris-HCl [pH 7.4], 5 mM MgCl2, 2.5 mM EDTA, 30 μg/ml bacitracin). 0.5 ml of homogenization buffer was added to each dish, cells were removed by scraping and then homogenized using a Polytron device (Brinkmann, Syosset, N.Y.; 3 bursts of 10 sec. at setting 4). The homogenate was then centrifuged for 20 min. at 11,000×g at 0° C. and the resulting crude membrane pellet (chiefly containing cell membranes and nuclei) was resuspended in homogenization buffer supplemented with 0.06% BSA (0.1 ml/60 mm dish) and kept on ice. Binding reactions were performed at 20° C. for 1 hr. in a total volume of 0.5 ml containing: 0.1 ml of membrane suspension, 10 μl of [^35 S]-Compound A (0.05 to 1 nM; specific activity approximately 900 Ci/mmol), 10 μl of competing drug and 380-390 μl of homogenization buffer. Bound radioligand was separated by rapid vacuum filtration (Brandel 48-well cell harvester) through GF/C filters pretreated for 1 hr. with 0.5% polyethylenimine. After application of the membrane suspension to the filter, the filters were washed 3 times with 3 ml each of ice cold 50 mM Tris-HCl [pH 7.4], 10 mM MgCl2, 2.5 mM EDTA and 0.015% Triton X-100, and the bound radioactivity on the filers was quantitated by scintillation counting. Specific binding (>90% of total) is defined as the difference between total binding and non-specific binding conducted in the presence of 50 nM unlabeled Compound A.

human Type II GHSR = test: Aequorin bioluminescence assay in Xenopus oocytes, human Type II GHSR; type: cell-based; details: human Type II-derived cRNA truncated in TM-6
Description: Xenopus laevis oocytes were isolated and injected using standard methods previously described by Arena, et. al. 1991, Mol. Pharmacol. 40, 368-374, which is hereby incorporated by reference. Adult female Xenopus Laevis frogs (purchased from Xenopus One, Ann Arbor, Mich.) were anesthetized with 0.17% tricaine methanesulfonate and the ovaries were surgically removed and placed in a 60 mm culture dish (Falcon) containing OR-2 medium without calcium (82.5 mM NaCl, 2 mM KCl, 2.5 mM sodium pyruvate, 1 mM MgCl2, 100 μ/ml penicillin, 1 mg/ml streptomycin, 5 mM HEPES, pH=7.5; ND-96 from Specialty Media, NJ). Ovarian lobes were broken open, rinsed several times, and oocytes were released from their sacs by collagenase A digestion (Boehringer-Mannheim; 0.2% for 2-3 hours at 18° C.) in calcium-free OR-2. […]
The ABA requires injection of library pool cRNA (25 ng/egg for pool sizes of 500 to 10,000) with aequorin cRNA (2 ng/egg) supplemented with the G-protein alpha subunit Gα11 (2 ng/egg). […] Polymerase chain reaction (PCR) was utilized to generate a DNA fragment corresponding to the open reading frame (ORF) of the aequorin cDNA with an optimized Kosak translational initiation sequence (Inouye, S. et. al., 1985, Proc. Natl. Acad. Sci. USA 82:3154-3158). […]

T1 sequence (Q95254 14-366): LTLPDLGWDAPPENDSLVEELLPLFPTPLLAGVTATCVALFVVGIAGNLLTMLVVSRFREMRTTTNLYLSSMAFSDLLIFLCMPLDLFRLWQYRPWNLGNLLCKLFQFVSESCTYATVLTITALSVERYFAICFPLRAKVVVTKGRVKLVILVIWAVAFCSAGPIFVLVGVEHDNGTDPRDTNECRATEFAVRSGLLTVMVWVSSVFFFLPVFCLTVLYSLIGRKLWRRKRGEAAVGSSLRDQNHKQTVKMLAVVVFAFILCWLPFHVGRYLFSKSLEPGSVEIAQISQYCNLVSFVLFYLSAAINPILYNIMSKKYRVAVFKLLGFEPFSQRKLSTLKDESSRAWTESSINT

## CC(C)(N)C(=O)N[C@H](COCc1ccccc1)C(=O)N1CCC2(CC1)CN(S(C)(=O)=O)c1ccccc12 [Compound A, (N-[1(R)-[1,2-dihydro-1-methanesulfonlylspiro[3H-indole-3,4'-piperidin]-1'-yl)carbonyl]-2-(phenylmethyloxy)-ethyl]-2-amino-2-methyl-propanamide]
[1]; 1 h, 50 nM unlabeled Compound A, read-out: specific binding displaced by unlabeled Compound A
  inhibition at 0.05 µM: > 90%
[1]; clone 7-3 expressed transiently in COS-7 cells
  saturable binding, Bmax: ~ 80 fmol/mg protein
[1]; clone 7-3 expressed transiently in COS-7 cells, read-out: high affinity binding, KD
  Kd: ~0.2 nM
[1]; nonspecific in presence of 50 nM unlabeled Compound A
  specific binding of total: > 90%
Human Type II GHSR
  response (in words): failed to give a response
